Measured values reported in patent US12064399B2, “Use of cannabinoids in the treatment of epilepsy” (Jazz Pharmaceuticals Research UK Limited, priority 2015, dated 2024).

Assays:
seizures [1] = details: Consroe et al., 1977; cited from earlier work
total seizures = test: Expanded access compassionate use program: 50% responders for total seizures, all subjects; type: in vivo, human; details: proportion of all subjects treated; 12 weeks of treatment
Description: The terms “50% responder” and “50% reduction in seizure” are both terms used in clinical studies. In the present application the terms define the percentage of subjects that experienced a greater than or equal to 50% reduction in the number of seizures during treatment with CBD in comparison to the number experienced during the baseline period before the CBD was administered.
Of 137 children and young adults with severe, childhood onset treatment-resistant epilepsy (TRE), fifty-one suffered from epilepsy that was characterised by focal seizures. These subjects were tested with a highly purified extract of cannabidiol (CBD) obtained from a Cannabis plant. All subjects presented with focal type seizures, often in addition to generalised seizures. The participants in the study were part of an expanded access compassionate use program for CBD.
All patients entered a baseline period of 4 weeks when parents/caregivers kept prospective seizure diaries, noting all countable seizure types.
The patients then received a highly purified CBD extract (greater than 98% CBD w/w) in sesame oil, of known and constant composition, at a dose of 5 mg/kg/day in addition to their baseline anti-epileptic drug (AED) regimen.

[2] = test system: focal seizures without impairment; test: Expanded access compassionate use program: 50% responders for focal seizures without impairment; type: in vivo, human; details: proportion of patients; 12 weeks of treatment
[3] = test system: focal seizures leading to secondary generalisation; test: Expanded access compassionate use program: 50% responders for focal seizures leading to secondary generalisation; type: in vivo, human; details: proportion of patients; 12 weeks of treatment
absence seizures = test: Patients with greater than 50% reduction of absence seizures under CBD; type: in vivo, human; details: treatment with CBD
[4] = test system: myoclonic absence seizures; test: Patients with greater than 50% reduction of myoclonic absence seizures under CBD; type: in vivo, human; details: treatment with CBD
[5] = Solubility of the drug substance in water; type: physicochemical
seizures [6] = details: mice; after administration of pro-convulsant drugs or an electric current; cited from earlier work
generalized epilepsy = details: of eight adult patients with generalized epilepsy; cited from earlier work
seizures [7] = details: 200 mg/day of pure CBD; four adult patients; cited from earlier work
seizures [8] = details: 200 mg day of pure CBD; twelve institutionalized adult patients; open label; cited from earlier work
refractory epilepsy = details: Press et al.; parental reporting; cited from earlier work

CCCCCc1cc(O)c2c(c1)OC(C)(C)[C@@H]1CCC(C)=C[C@@H]21 [THC, Tetrahydrocannabinol]
effect on seizures (seizures [1]): pro-convulsant

C=C(C)[C@@H]1CCC(C)=C[C@H]1c1c(O)cc(CCCCC)cc1O [CBD, Cannabidiol]
<50% reduction in seizures, Total seizures (n = 137) (total seizures): 54% (n = 74)
<50% reduction in seizures, Focal Seizures without Impairment (n = 6) [2]: 50%
>50% reduction in seizures, Focal Seizures without Impairment (n = 6) [2]: 50%
<50% reduction in seizures, Focal Seizures Leading to Secondary Generalised (n = 15) [3]: 53%
>50% reduction in seizures, Focal Seizures Leading to Secondary Generalised (n = 15) [3]: 47%
proportion of patients with greater than 50% reduction of absence seizures (absence seizures): 64%
proportion of patients with greater than 50% reduction of myoclonic absence seizures [4]: 75%
solubility in water [5]: insoluble
prevention of seizures (seizures [6]): able to prevent seizures
patients with marked reduction of seizures (generalized epilepsy): 4
patients who became seizure free (seizures [7]): two of the four patients became seizure free
control of seizures (seizures [8]): ineffective
responder rate by OCE type (refractory epilepsy): 35%
